What was measured:
[1] = biological target: histone deacetylase (HeLa nuclear extracts); test: In vitro assay for inhibition of histone deacetylase with fluorescent-labelled substrate (Fluor de Lys); format: biochemical
Text: The in vitro assay for inhibition of histone deacetylase (see example C.1) measures the inhibition of HDAC enzymatic activity obtained with the compounds of formula (I).
The HDAC Fluorescent Activity Assay/Drug Discovery Kit of Biomol (cat. No: AK-500-0001) was used. The HDAC Fluorescent Activity Assay is based on the Fluor de Lys (Fluorogenic Histone deAcetylase Lysyl) substrate and developer combination. The Fluor de Lys substrate, comprises an acetylated lysine side chain. Deacetylation of the substrate sensitizes the substrate so that, in the second step, treatment with the Fluor de Lys developer produces a fluorophore.
HeLa nuclear extracts (supplier: Biomol) were incubated at 60 μg/ml with 75 μM of substrate. The Fluor de Lys substrate was added in a buffer containing 25 mM Tris, 137 mM NaCl, 2.7 mM KCl and 1 mM MgCl2.6H2O at pH 7.4. After 30 min, 1 volume of the developer was added. The fluorophore was excited with 355 nm light and the emitted light (450 nm) was be detected on a fluorometric plate reader.
For each experiment, controls (containing HeLa nuclear extract and buffer), a blank incubation (containing buffer but no HeLa nuclear extract) and samples (containing compound dissolved in DMSO and further diluted in buffer and HeLa nuclear extract) were run in parallel. In first instance, compounds were tested at a concentration of 10^−5M. […] All sample were tested 4 times. In each test the blank value was subtracted from both the control and the sample values. The control sample represented 100% of substrate deactylation. For each sample the fluorescence was expressed as a percentage of the mean value of the controls. […] Herein the effects of test compounds are expressed as pIC50 (the negative log value of the IC50-value) (see Table F-2).

[2] = Kinetic solubility in aqueous media C.3.a (nephelometer); format: physicochemical; conditions: aqueous buffer, kinetic from dmso stock; phosphate citrate buffer pH 7.4, turbidity; read-out: Kinetic solubility score (C.3.a)
Description: The solubility of a compound measures the ability of a compound to stay in solution. In a first method the ability of a compound to stay in aqueous solution upon dilution (see example C.3.a) is measured. DMSO-stock solutions are diluted with a single aqueous buffer solvent in 3 consecutive steps. For every dilution turbidity is measured with a nephelometer.
In the first dilution step, 10 μl of a concentrated stock-solution of the active compound, solubilized in DMSO (5 mM), was added to 100 μl phosphate citrate buffer pH 7.4 and mixed. In the second dilution step, an aliquot (20 μl) of the first dilution step was further dispensed in 100 μl phosphate citrate buffer pH 7.4 and mixed. Finally, in the third dilution step, a sample (20 μl) of the second dilution step was further diluted in 100 μl phosphate citrate buffer pH 7.4 and mixed. All dilutions were performed in 96-well plates. Immediately after the last dilution step the turbidity of the three consecutive dilution steps were measured with a nephelometer. Dilution was done in triplicate for each compound to exclude occasional errors. Based on the turbidity measurements a ranking is performed into 3 classes. Compounds with high solubility obtained a score of 3 and for this compounds the first dilution is clear. Compounds with medium solubility obtained a score of 2. […]

In the case of Cn1c(CNCC2CCN(c3ncc(C(=O)NO)cn3)CC2)nc2ccccc21 [Compound 3], the “Enzymatic activity pIC50 C.1” value [1] is reported as 8.1 and the solubility kinetic [2] is reported as over 455 µM.
